Source: ChEMBL document CHEMBL5523703, “Modulators for palmitoylation of proteins and small molecules” (Eur J Med Chem, 2024)
Blank lines part the entries; values can stand above or below the molecule they belong to.

Tests used:
[1] = molecular target: T1, Carnitine O-palmitoyltransferase 1, liver isoform (Homo sapiens, UniProt P50416); test: Inhibition of CPT1A (unknown origin)
T1 sequence (P50416 whole entry): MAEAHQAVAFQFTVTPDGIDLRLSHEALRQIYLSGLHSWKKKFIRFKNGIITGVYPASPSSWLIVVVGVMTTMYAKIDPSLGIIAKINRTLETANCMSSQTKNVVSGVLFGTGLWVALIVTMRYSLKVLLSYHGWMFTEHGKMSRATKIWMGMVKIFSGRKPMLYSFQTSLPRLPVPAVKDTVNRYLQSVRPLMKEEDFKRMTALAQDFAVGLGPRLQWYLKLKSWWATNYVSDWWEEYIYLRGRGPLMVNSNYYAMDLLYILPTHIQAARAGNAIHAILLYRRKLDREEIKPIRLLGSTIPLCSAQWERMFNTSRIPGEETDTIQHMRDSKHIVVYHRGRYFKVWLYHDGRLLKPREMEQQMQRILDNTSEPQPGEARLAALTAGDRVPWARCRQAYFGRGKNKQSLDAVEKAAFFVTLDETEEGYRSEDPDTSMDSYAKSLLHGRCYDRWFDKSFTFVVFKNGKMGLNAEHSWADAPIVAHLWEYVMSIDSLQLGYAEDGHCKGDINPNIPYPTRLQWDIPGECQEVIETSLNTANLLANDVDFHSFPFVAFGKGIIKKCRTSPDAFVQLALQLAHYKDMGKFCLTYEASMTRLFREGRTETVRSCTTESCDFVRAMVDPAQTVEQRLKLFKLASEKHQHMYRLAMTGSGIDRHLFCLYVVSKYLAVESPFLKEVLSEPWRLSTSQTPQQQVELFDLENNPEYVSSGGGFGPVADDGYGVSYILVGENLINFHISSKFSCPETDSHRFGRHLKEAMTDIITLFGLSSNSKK

[2] = molecular target: T2, Carnitine O-palmitoyltransferase 1, muscle isoform (Homo sapiens, UniProt Q92523); test: Inhibition of CPT1B (unknown origin)
T2 sequence (Q92523 whole entry): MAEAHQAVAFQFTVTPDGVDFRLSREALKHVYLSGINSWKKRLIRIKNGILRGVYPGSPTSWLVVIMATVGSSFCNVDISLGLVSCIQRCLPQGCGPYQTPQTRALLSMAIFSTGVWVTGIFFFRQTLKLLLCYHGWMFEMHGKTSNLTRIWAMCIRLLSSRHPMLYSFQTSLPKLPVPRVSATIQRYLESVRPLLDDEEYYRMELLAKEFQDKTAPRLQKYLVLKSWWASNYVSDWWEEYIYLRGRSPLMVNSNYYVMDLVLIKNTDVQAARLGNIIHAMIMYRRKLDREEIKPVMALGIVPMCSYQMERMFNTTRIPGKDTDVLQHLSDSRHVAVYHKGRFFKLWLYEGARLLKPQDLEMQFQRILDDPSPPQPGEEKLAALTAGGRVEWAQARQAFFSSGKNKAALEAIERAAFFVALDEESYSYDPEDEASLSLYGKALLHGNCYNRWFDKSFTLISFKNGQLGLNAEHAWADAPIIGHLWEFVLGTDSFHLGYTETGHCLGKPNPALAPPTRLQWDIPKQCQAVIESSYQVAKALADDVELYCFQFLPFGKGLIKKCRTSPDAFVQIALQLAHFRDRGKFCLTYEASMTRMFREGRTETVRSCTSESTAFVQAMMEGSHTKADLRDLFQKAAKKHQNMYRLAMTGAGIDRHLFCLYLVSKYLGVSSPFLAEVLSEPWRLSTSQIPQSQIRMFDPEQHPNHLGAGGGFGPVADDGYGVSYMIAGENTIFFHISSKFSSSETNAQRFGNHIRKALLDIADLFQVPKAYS

[3] = molecular target: T2, Carnitine O-palmitoyltransferase 1, muscle isoform; test: Inhibition of CPT1B (unknown origin) in KB cells; type: cell-based
[4] = molecular target: T3, Carnitine O-palmitoyltransferase 1, liver isoform (Rattus norvegicus, UniProt P32198); test: Inhibition of rat hepatocytes CPT1A; type: cell-based, Hepatocyte
T3 sequence (P32198 whole entry): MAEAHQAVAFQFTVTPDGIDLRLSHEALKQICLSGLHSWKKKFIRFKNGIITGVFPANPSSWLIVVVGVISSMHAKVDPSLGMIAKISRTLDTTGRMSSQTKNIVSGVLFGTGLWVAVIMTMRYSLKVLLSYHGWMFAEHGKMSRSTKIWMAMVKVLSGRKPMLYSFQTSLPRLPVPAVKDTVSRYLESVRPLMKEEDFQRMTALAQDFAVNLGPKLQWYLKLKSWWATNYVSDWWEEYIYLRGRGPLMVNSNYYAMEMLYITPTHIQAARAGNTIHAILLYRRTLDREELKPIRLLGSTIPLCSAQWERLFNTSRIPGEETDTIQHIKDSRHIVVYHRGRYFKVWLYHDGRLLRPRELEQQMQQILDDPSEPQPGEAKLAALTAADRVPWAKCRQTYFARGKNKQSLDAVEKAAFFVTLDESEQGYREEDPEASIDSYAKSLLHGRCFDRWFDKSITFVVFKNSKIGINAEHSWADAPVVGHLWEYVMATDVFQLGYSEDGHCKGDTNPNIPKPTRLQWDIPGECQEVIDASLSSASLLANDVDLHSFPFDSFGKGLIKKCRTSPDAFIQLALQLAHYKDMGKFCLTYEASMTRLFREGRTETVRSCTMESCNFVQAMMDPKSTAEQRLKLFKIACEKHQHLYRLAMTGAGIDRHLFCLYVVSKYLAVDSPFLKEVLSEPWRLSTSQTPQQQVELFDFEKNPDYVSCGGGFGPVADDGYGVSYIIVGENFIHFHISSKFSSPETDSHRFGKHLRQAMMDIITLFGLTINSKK

[5] = molecular target: T4, Transcriptional enhancer factor TEF-1 (Homo sapiens, UniProt P28347); test: Inhibition of N-terminal His-tagged human TEAD1 expressed in Escherichia coli BL21 (DE3) (209 to 424 residues) by affinity chromatography analysis
[6] = molecular target: Carnitine O-palmitoyltransferase 2, mitochondrial (Rattus norvegicus, UniProt P18886); test: Inhibition of rat CPT2
[7] = molecular target: T1, Carnitine O-palmitoyltransferase 1, liver isoform; test: Inhibition of CPT1 (unknown origin)
[8] = Inhibition of N-terminal 6His-tagged human TEAD1 YAP-binding domain (219 to 435 residues) expressed in Escherichia coli BL21 (DE3)
[9] = molecular target: T4, Transcriptional enhancer factor TEF-1; test: Inhibition of N-terminal 6His-tagged human TEAD1 YAP-binding domain (209 to 426 residues) expressed in Escherichia coli BL21 (DE3)
[10] = molecular target: T1, Carnitine O-palmitoyltransferase 1, liver isoform; test: Binding affinity to CPT1 (unknown origin) assessed as inhibition constant
[11] = Inhibition of SPT (unknown origin); parameters: species or system Homo sapiens
[12] = Inhibition of SPT in mouse Neuro2a cells; type: cell-based
[13] = molecular target: Carnitine O-palmitoyltransferase 1, liver isoform (Homo sapiens) (UniProt P50416); test: Inhibition of CPT1 (unknown origin) at 10 uM relative to control
[14] = molecular target: Palmitoyltransferase ZDHHC9 (Homo sapiens, UniProt Q9Y397); test: Binding affinity to ZDHHC9 (unknown origin) assessed as inhibition constant
Homo sapiens = species on record: Homo sapiens; test: Binding affinity to ZDHHC (unknown origin) assessed as inactivation constant
[15] = molecular target: Protein-cysteine N-palmitoyltransferase HHAT (Homo sapiens, UniProt Q5VTY9); test: Binding affinity to His-tagged HHAT (unknown origin) transfected in HEK293FT cells assessed as inhibition constant; type: cell-based
Plasmodium falciparum = test: […] activity against Plasmodium falciparum assessed as reduction in microbial growth; type: functional
[16] = Binding affinity to SPT (unknown origin) assessed as inhibition constant; parameters: species or system Homo sapiens
CCF-STTG1 = test: Antiproliferative activity against human CCF-STTG1 cells assessed as reduction in cell growth; type: functional, cell-based

T4 sequence (P28347 whole entry, the tested form may be a part): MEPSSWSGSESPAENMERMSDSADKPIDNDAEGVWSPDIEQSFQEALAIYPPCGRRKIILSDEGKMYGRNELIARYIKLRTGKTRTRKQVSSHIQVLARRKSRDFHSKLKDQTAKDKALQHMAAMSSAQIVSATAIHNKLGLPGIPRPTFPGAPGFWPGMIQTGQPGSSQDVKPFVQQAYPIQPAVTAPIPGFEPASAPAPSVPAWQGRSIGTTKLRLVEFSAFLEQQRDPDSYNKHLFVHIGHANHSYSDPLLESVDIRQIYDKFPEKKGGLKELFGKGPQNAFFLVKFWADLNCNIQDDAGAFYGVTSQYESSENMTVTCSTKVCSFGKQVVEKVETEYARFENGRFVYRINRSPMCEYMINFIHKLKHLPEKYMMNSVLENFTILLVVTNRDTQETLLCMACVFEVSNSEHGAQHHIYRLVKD
Sequence of Carnitine O-palmitoyltransferase 2, mitochondrial (P18886 whole entry, canonical isoform): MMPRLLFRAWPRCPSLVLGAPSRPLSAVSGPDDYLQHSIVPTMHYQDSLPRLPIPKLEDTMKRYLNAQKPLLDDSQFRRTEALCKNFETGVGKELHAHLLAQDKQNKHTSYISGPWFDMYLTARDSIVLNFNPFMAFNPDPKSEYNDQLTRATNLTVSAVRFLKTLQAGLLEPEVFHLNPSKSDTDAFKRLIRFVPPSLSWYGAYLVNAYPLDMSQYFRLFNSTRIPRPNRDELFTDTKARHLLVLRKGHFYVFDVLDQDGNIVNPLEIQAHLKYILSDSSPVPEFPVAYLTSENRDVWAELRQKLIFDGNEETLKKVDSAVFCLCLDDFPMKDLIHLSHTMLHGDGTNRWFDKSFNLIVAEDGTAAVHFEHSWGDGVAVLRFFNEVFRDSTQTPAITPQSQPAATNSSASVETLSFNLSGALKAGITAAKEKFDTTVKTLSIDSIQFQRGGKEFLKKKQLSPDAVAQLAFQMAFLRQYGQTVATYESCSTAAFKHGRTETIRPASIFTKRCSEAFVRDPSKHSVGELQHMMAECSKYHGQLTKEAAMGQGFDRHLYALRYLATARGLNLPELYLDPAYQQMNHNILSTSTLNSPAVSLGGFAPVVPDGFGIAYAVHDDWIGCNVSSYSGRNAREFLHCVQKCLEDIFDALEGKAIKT
Sequence of Protein-cysteine N-palmitoyltransferase HHAT (Q5VTY9 whole entry): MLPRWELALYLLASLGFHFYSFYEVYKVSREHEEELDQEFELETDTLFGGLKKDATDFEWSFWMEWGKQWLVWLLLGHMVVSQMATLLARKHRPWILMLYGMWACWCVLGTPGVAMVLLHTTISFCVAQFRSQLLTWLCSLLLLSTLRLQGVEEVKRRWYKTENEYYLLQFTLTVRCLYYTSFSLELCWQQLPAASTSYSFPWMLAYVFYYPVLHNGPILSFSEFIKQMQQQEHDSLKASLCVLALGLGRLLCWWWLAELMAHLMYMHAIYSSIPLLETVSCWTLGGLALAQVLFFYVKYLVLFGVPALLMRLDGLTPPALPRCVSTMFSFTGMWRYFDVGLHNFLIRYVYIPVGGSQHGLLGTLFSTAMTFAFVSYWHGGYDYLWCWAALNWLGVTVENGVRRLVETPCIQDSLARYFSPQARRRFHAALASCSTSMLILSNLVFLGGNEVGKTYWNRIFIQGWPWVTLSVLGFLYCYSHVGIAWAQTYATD
Sequence of Palmitoyltransferase ZDHHC9 (Q9Y397 whole entry): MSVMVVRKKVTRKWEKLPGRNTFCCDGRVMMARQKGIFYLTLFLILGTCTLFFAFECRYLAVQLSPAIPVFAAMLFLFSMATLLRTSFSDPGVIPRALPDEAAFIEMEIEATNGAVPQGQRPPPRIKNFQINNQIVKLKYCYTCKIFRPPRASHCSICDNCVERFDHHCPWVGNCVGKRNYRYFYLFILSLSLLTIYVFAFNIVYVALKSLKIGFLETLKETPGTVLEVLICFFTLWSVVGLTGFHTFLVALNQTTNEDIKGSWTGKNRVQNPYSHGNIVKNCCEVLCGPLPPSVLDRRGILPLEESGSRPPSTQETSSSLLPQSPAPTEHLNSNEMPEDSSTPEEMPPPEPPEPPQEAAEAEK

IC50 [1]: 0.13 µM
IC50 [2]: 5.44 µM
Compound: CCCCCCOc1cccc(OCCCCNC(=O)N[C@H](CC(=O)[O-])C[N+](C)(C)C)c1

IC50 [3]: 0.021 µM
IC50 [4]: 1.09 µM
Compound: COc1ccc(Cl)cc1S(=O)(=O)N1CCc2ccc(C(=O)Nc3ccc(C(=O)O)cc3)cc21

IC50 [5]: 0.045 µM
Compound: C=CC(=O)N1C[C@@H](n2cc(C3CCOCC3)nn2)[C@H](OCc2ccc(C(F)(F)F)cc2)C1

IC50 [3]: 0.016 µM
IC50 [4]: 1.34 µM
Compound: COc1ccc(Cl)cc1S(=O)(=O)N1CC(C(=O)O)Oc2ccc(C(=O)Nc3cccc(F)c3)cc21 (stereo not drawn)

IC50 [6]: 79 µM
IC50 [7]: 11 µM
Compound: N[C@H](C(=O)O)c1ccc(O)cc1 [OXFENICINE]

IC50 [8]: 0.58 µM
IC50 [9]: 0.61 µM
Compound: C=CC(=O)N1CCC(CCOc2ccccc2)CC1

Ki [10]: 0.36 µM
IC50 [7]: 0.68 µM
Compound: CCCCCCCCCCCCCCNC(=O)N[C@H](CC(=O)[O-])C[N+](C)(C)C

Compound: CNC(=O)c1ccc2c(c1)CC(=O)N2C1CCN(CC(=O)N2CC3CCCC3C2)CC1 (stereo not drawn)
IC50 [11]: 0.0273 µM
IC50 [12]: 9.5 µM

inhibition [13]: 66%
Compound: CCCCCCCCCCCCCC[C@]1(C(=O)O)CO1

Ki [14]: 72 µM
Compound: CC(C)Cc1ccc(C(C)CN2CCNC[C@@H]2CCCCN2CCN(CC(C)c3ccc(CC(C)C)cc3)[C@@H](Cc3ccc(O)cc3)C2)cc1 (stereo partly drawn)

Kinact (Homo sapiens): 0.83 M⁻¹ s⁻¹
Compound: N[C@H]1CONC1=O

Ki [15]: 7.4 µM
Compound: CCC(C)CNCC(=O)N1CCc2sccc2C1COc1cccc(C)c1 (stereo not drawn)

MIC (Plasmodium falciparum): 0.78 µg/mL
Compound: CCCCCCCCCCCCOC(=O)[C@@H](N)CC(C)C

IC50 [6]: 77 µM
Compound: C1CCC(C(CC2CCCCN2)C2CCCCC2)CC1 (stereo not drawn) [PERHEXILINE]

Ki [16]: 1.7 µM
Compound: C/C(=C\CC12OC(C)(C)C3CC(C=C4C(=O)c5c(O)cccc5OC431)C2=O)COC(=O)c1cccnc1 (stereo not drawn)
IC50 (CCF-STTG1): 2.29 µM
